The results in this text go back to patent US20230322846A9, “NEUROACTIVE STEROIDS AND THEIR METHODS OF USE” (SAGE THERAPEUTICS, INC., priority 2018, published 2023).

The target in test [1] is human GABAA receptors composed of the α1β2γ2 subunits (Homo sapiens (Human), UniProt P14867+P18507+P47870). The test is described as follows: α1β2γ2 SyncroPatch automated patch clamp assay. It is filed as cell-based. To be noted: for EC50: HEK cells, potentiation of submaximal GABA current, clamped at −120 mV; for α1β2γ2 EMAX: peak current after GABA+compound divided by peak current after GABA alone. The method, boiled down: (§1)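 Whole-cell recordings in HEK cells stably expressing each receptor, held at −120 mV, pH 7.4 extracellular/pH 7.2 KF-based intracellular solution. Submaximal GABA (3-5 μM or 10 μM) applied, then GABA plus compound at 0.029-30 μM (six concentrations, n=8-12 cells). Effect = peak current ratio GABA+compound/GABA alone; EC50 and Emax from concentration means.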
A general note: In patch-clamp work, channel activity is measured electrically.

Test [2] addresses human GABAA receptors composed of the α4β3δ subunits (Homo sapiens (Human), UniProt O14764+P28472+P48169). As to the kind of experiment: α4β3δ SyncroPatch automated patch clamp assay. It is filed as cell-based. The note with it: for EC50: HEK cells, potentiation of submaximal GABA current, clamped at −120 mV; for α4β3δ EMAX: peak current after GABA+compound divided by peak current after GABA alone. The procedure, abridged:
as §1

Test [3] deals with [35S]-TBPS binding, rat brain cortical membranes. The test is described as follows: Steroid inhibition of [35S]-TBPS binding. The note with it: 3 nM [35S]-TBPS, in the presence of 5 mM GABA. The method, boiled down:
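In the presence of […], compounds (DMSO 0.5% final) competed with 3 nM [35S]-TBPS for Sprague-Dawley rat cortical membranes, pH 7.4 phosphate buffer, 90 min, room temperature. Filtration and scintillation counting; specific binding defined by […]; IC50 and maximal inhibition fitted per experiment, averaged as mean ± SEM.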

Sequence of human GABAA receptors composed of the α4β3δ subunits (P48169 36-554 limits assumed): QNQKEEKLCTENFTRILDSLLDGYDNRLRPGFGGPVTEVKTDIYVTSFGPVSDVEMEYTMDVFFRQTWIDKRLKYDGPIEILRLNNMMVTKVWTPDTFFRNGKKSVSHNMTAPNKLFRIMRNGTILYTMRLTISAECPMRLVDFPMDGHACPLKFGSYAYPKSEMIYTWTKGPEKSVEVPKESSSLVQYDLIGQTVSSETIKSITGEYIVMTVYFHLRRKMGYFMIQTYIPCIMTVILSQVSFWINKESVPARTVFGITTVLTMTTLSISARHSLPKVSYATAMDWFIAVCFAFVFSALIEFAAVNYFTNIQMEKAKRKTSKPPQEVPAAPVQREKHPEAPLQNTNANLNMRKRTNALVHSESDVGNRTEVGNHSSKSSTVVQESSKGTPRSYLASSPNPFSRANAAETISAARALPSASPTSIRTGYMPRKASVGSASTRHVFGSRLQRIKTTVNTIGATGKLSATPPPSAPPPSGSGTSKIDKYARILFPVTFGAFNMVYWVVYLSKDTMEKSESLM
Sequence of human GABAA receptors composed of the α4β3δ subunits (P28472 26-473 limits assumed): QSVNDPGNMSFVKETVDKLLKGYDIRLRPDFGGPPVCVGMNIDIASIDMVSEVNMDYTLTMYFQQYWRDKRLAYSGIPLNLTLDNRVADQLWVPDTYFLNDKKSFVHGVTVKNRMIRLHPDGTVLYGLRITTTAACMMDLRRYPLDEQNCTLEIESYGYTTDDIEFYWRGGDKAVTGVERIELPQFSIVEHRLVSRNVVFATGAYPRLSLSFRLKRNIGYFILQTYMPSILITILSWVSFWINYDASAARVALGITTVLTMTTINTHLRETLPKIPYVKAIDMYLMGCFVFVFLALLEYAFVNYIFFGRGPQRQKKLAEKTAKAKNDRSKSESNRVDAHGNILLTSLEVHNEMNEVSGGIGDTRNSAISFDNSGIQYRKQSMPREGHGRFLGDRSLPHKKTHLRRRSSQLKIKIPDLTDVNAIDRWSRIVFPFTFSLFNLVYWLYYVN
Sequence of human GABAA receptors composed of the α4β3δ subunits (O14764 17-452 limits assumed): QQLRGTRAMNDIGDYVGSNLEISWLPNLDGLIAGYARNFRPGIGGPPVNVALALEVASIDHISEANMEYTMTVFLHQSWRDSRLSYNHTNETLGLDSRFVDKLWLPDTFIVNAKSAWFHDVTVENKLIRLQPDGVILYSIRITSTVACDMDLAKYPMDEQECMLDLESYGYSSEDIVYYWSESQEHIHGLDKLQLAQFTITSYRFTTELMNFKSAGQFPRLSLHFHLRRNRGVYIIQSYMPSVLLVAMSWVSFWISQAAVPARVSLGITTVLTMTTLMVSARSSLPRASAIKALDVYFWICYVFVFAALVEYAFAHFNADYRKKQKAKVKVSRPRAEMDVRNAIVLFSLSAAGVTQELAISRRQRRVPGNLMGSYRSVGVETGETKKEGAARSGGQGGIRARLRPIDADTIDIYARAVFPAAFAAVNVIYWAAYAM
Sequence of human GABAA receptors composed of the α1β2γ2 subunits (P14867 28-456 limits assumed): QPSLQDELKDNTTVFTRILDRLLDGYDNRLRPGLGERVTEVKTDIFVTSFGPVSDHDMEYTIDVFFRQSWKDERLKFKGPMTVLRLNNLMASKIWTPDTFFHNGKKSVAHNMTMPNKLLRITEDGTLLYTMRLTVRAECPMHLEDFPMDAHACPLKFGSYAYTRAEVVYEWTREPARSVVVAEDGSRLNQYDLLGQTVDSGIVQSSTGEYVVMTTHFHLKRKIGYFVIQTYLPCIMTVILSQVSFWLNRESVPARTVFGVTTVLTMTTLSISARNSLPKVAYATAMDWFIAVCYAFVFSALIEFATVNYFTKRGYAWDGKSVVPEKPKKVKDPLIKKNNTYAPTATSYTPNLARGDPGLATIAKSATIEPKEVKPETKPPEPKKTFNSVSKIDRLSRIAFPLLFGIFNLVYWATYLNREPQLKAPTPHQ
Sequence of human GABAA receptors composed of the α1β2γ2 subunits (P47870 25-512 limits assumed): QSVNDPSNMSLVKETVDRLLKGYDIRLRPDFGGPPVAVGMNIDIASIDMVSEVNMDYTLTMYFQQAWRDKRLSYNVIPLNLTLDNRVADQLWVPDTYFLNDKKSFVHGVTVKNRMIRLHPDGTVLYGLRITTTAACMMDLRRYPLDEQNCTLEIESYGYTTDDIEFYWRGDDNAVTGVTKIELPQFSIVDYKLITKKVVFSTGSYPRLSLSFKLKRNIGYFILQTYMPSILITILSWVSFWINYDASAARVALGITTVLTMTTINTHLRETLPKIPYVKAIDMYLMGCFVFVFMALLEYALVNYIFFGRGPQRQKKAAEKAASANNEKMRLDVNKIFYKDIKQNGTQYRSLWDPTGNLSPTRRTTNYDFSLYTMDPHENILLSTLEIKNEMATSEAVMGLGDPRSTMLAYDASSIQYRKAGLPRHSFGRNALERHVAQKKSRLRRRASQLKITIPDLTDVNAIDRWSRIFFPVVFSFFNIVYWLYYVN
Sequence of human GABAA receptors composed of the α1β2γ2 subunits (P18507 40-475 limits assumed): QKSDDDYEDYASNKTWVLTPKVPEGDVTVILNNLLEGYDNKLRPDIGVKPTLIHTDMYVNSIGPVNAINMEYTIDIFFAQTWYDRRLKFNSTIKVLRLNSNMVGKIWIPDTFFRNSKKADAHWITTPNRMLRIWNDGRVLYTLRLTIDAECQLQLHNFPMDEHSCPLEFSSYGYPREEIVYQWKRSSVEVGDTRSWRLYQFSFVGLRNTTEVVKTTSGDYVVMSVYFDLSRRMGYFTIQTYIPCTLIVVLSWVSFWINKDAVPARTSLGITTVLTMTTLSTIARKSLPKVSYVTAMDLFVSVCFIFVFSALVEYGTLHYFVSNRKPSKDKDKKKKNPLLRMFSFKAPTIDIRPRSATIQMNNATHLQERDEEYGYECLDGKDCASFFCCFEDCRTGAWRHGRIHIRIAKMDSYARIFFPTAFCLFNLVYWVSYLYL

Turning to `C[C@@H](Cn1cc(C#N)cn1)[C@H]1CC[C@H]2[C@@H]3CC[C@@H]4C[C@@](O)(C5CC5)CC[C@@H]4[C@H]3CC[C@]12C` [Example 341, 1-((R)-2-((3R,5R,8R,9R,10S,13S,14S,17R)-3-cyclopropyl-3-hydroxy-13-methylhexadecahydro-1H-cyclopenta[a]phenanthren-17-yl)propyl)-1H-pyrazole-4-carbonitrile], in test [1], the EC50 (as a rule, the midpoint of the concentration-response curve) is below 0.2 µM and the “α1β2γ2 EMAX” value is given as “A (A indicates an Emax response <8)”. For the same compound, in test [2], the EC50 is below 0.2 µM and the “α4β3δ EMAX” value is reported as “A (A indicates an Emax response <30)”. The IC50 – broadly, the concentration at which inhibition is half-maximal – in test [3] was below 0.1 µM.

Regarding `CCOC[C@@]1(O)CC[C@H]2[C@H](CC[C@@H]3[C@@H]2CC[C@]2(C)[C@@H]([C@H](Cn4cc(C#N)cn4)C(F)(F)F)CC[C@@H]32)C1` [Example 357, 1-((R)-2-((3R,5R,8R,9R,10S,13S,14S,17R)-3-(ethoxymethyl)-3-hydroxy-13-methylhexadecahydro-1H-cyclopenta[a]phenanthren-17-yl)-3,3,3-trifluoropropyl)-1H-pyrazole-4-carbonitrile], in test [1], the half-maximal effective concentration (EC50) was 0.2 to 1 µM and the “α1β2γ2 EMAX” value is listed as “B (B indicates an Emax response 8 to <10)”. Also, in test [2], the concentration giving a half-maximal response (EC50) fell in the range of 0.2 to 1 µM and the “α4β3δ EMAX” value was “B (B indicates an Emax response 30 to <45)”. In test [3], the 50% inhibitory concentration (IC50) was in the range of 0.1 to 1 µM.

For `CCOC[C@@]1(O)CC[C@H]2[C@H](CC[C@@H]3[C@@H]2CC[C@]2(C)[C@@H]([C@H](Cn4nnc(C)n4)C(F)(F)F)CC[C@@H]32)C1` [Example 358, (3R,5R,8R,9R,10S,13S,14S,17R)-3-(ethoxymethyl)-13-methyl-17-((R)-1,1,1-trifluoro-3-(5-methyl-2H-tetrazol-2-yl)propan-2-yl)hexadecahydro-1H-cyclopenta[a]phenanthren-3-ol], in test [1], the EC50 is at least 1 µM and the “α1β2γ2 EMAX” value is “A (A indicates an Emax response <8)”. In test [2], the EC50 was at least 1 µM and the “α4β3δ EMAX” value is recorded as “B (B indicates an Emax response 30 to <45)”. In addition, the IC50 in test [3] fell in the range of 0.1 to 1 µM.

`CCC[C@@]1(O)CC[C@H]2[C@H](CC[C@@H]3[C@@H]2CC[C@]2(C)[C@@H]([C@@H](C)Cc4ccc(C#N)nc4)CC[C@@H]32)C1` [Example 401, 5-((S)-2-((3R,5R,8R,9R,10S,13R,14S,17R)-3-hydroxy-13-methyl-3-propylhexadecahydro-1H-cyclopenta[a]phenanthren-17-yl)propyl)picolinonitrile]: in test [1], the 50% effective concentration (EC50) is at least 1 µM and the “α1β2γ2 EMAX” value is reported as “C (C indicates an Emax response ≥10)”. In addition, in test [2], the half-maximal effective concentration (EC50) is at least 1 µM and the “α4β3δ EMAX” value is “A (A indicates an Emax response <30)”. In test [3], the IC50 is below 0.1 µM.

With `COC[C@@]1(O)CC[C@H]2[C@H](CC[C@@H]3[C@@H]2CC[C@]2(C)[C@@H]([C@H](C)Cc4ccc(C#N)nc4)CC[C@@H]32)C1` [Example 405, 5-((R)-2-((3R,5R,8R,9R,10S,13R,14S,17R)-3-hydroxy-3-(methoxymethyl)-13-methylhexadecahydro-1H-cyclopenta[a]phenanthren-17-yl)propyl)picolinonitrile], in test [1], the EC50 is at least 1 µM and the “α1β2γ2 EMAX” value was “C (C indicates an Emax response ≥10)”. For the same compound, in test [2], the concentration for a half-maximal effect (EC50) was below 0.2 µM and the “α4β3δ EMAX” value is “B (B indicates an Emax response 30 to <45)”. Also, the IC50 in test [3] is below 0.1 µM.

`C[C@H](Cc1cncc(C#N)c1)[C@H]1CC[C@H]2[C@@H]3CC[C@@H]4C[C@](C)(O)CC[C@@H]4[C@H]3CC[C@]12C` [Example 406, 5-((R)-2-((3R,5R,8R,9R,10S,13R,14S,17R)-3-hydroxy-3,13-dimethylhexadecahydro-1H-cyclopenta[a]phenanthren-17-yl)propyl)nicotinonitrile]: in test [1], the EC50 is below 0.2 µM and the “α1β2γ2 EMAX” value is “A (A indicates an Emax response <8)”. For the same compound, in test [2], the EC50 is below 0.2 µM and the “α4β3δ EMAX” value is “B (B indicates an Emax response 30 to <45)”. Moreover, in test [3], the concentration for half-maximal inhibition (IC50) is below 0.1 µM.

As to `C[C@@H](Cc1cncc(C#N)c1)[C@H]1CC[C@H]2[C@@H]3CC[C@@H]4C[C@](C)(O)CC[C@@H]4[C@H]3CC[C@]12C` [Example 407, 5-((S)-2-((3R,5R,8R,9R,10S,13R,14S,17R)-3-hydroxy-3,13-dimethylhexadecahydro-1H-cyclopenta[a]phenanthren-17-yl)propyl)nicotinonitrile], in test [1], the concentration giving a half-maximal response (EC50) is below 0.2 µM and the “α1β2γ2 EMAX” value is “C (C indicates an Emax response ≥10)”. Moreover, in test [2], the EC50 was at least 1 µM and the “α4β3δ EMAX” value is on record as “C (C indicates an Emax response ≥45)”. The IC50 in test [3] is below 0.1 µM.

Turning to `CCOC[C@@]1(O)CC[C@H]2[C@H](CC[C@@H]3[C@@H]2CC[C@]2(C)[C@@H]([C@@H](C)Cc4cccc(C#N)n4)CC[C@@H]32)C1` [Example 413], in test [1], the concentration giving a half-maximal response (EC50) is below 0.2 µM and the “α1β2γ2 EMAX” value is “C (C indicates an Emax response ≥10)”. Further, in test [2], the EC50 is below 0.2 µM and the “α4β3δ EMAX” value is given as “B (B indicates an Emax response 30 to <45)”. Also, the concentration for half-maximal inhibition (IC50) in test [3] is below 0.1 µM.

`Cc1cnc(C[C@H](C)[C@H]2CC[C@H]3[C@@H]4CC[C@@H]5C[C@](C)(O)CC[C@@H]5[C@H]4CC[C@]23C)s1` [Example 430]: in test [1], the EC50 lay in the range of 0.2 to 1 µM and the “α1β2γ2 EMAX” value is reported as “B (B indicates an Emax response 8 to <10)”. For the same compound, in test [2], the EC50 was below 0.2 µM and the “α4β3δ EMAX” value is on record as “A (A indicates an Emax response <30)”. For the same compound, the half-maximal inhibitory concentration (IC50) in test [3] lay within 0.1 to 1 µM.

Take `C[C@H](Cc1nccc(C#N)n1)[C@H]1CC[C@H]2[C@@H]3CC[C@@H]4C[C@](C)(O)CC[C@@H]4[C@H]3CC[C@]12C` [Example 436]: in test [1], the concentration giving a half-maximal response (EC50) was 0.2 to 1 µM and the “α1β2γ2 EMAX” value is “A (A indicates an Emax response <8)”. Further, in test [2], the EC50 is at least 1 µM and the “α4β3δ EMAX” value was “B (B indicates an Emax response 30 to <45)”. Also, the IC50 in test [3] fell in the range of 0.1 to 1 µM.

For the compound `Cc1cnc(C[C@@H](C)[C@H]2CC[C@H]3[C@@H]4CC[C@@H]5C[C@](C)(O)CC[C@@H]5[C@H]4CC[C@]23C)nc1` [Example 438], in test [1], the EC50 was in the range of 0.2 to 1 µM and the “α1β2γ2 EMAX” value is given as “A (A indicates an Emax response <8)”. In test [2], the EC50 was at least 1 µM and the “α4β3δ EMAX” value is “B (B indicates an Emax response 30 to <45)”. Also, the 50% inhibitory concentration (IC50) in test [3] lay in the range of 0.1 to 1 µM.

Take `Cc1cnc(C[C@H](C)[C@H]2CC[C@H]3[C@@H]4CC[C@@H]5C[C@](C)(O)CC[C@@H]5[C@H]4CC[C@]23C)cn1` [Example 439]: in test [1], the EC50 is below 0.2 µM and the “α1β2γ2 EMAX” value was “C (C indicates an Emax response ≥10)”. Further, in test [2], the EC50 is below 0.2 µM and the “α4β3δ EMAX” value is “C (C indicates an Emax response ≥45)”. Besides, the half-maximal inhibitory concentration (IC50) in test [3] was below 0.1 µM.
